# Patent publication US12551481B2, “Molecular targets for addiction” (The Jackson Laboratory, priority 2019, dated 2026)
# Tested on: Htr1d expression
# Test: Htr1d expression in founder strains of CC/DO mice after repeated exposure to cocaine or sham (saline)
# Format: in vivo, mouse
# Conditions: CAST/EiJ males and 129S1/SvlmJ males; repeated exposure over days
# Source text: Identification of a target for addiction treatment was undertaken using Diversity Outbred (DO) stock of mice and the eight founding inbred strains used to generate the DO stock, which are a genetically diverse collect of mice used to validate […] trait loci (QTLs) linked to disease susceptibility, drug resistance, or behavioral phenotypes (see, e.g., Saul et al., 2019, Trends in Genetics (PMID: 31133439)). DO mice were developed by random outcross mating of 160 incipient Collaborative Cross recombinant inbred mouse lines, which were created by crossing eight unique and genetically diverse inbred mouse strains. […] Upregulation after cocaine exposure was also observed in PWK/PhJ males.
smiles,measurement,value
COC(=O)[C@H]1[C@@H](OC(=O)c2ccccc2)C[C@@H]2CC[C@H]1N2C [cocaine],"Htr1d expression differences, cocaine compared to sham",2 fold
